Measurements taken from patent publication US7074780B2, “Substituted phenylcyclohexanecarboxamides and their use” (Bayer Aktiengesellschaft, priority 2000, dated 2006).
pIC50: −log10 of the molar value.

System: adenosine-uptake system
Assay: Inhibition of the adenosine uptake in rabbit erythrocytes
Format: cell-based
Details: Oryctolagus cuniculus, 0.25 h; rabbit erythrocyte preparation; concentration at which 50% of the adenosine originally employed is still present 15 min after addition of adenosine; 30° C.; read-out: IC50 (inhibition of functional adenosine uptake)
Experimental: 2. Inhibition of the Adenosine Uptake in Rabbit Erythrocytes by the Compounds According to the Invention
The capability of substances to influence the adenosine-uptake system is investigated by determining the inhibitory effect of the substances on functional adenosine uptake.
For the functional adenosine-uptake test, an erythrocyte preparation from rabbit blood is used. The blood is drawn intravenously using citrate (3 ml Monovette 9NC from Sarstedt) as anticoagulant. The blood is centrifuged at 3000 g for 5 min and the erythrocytes are suspended in 10 mM 3-(N-morpholino)propanesulphonic acid buffer (MOPS)/0.9% NaCL solution pH7.4. The suspension is diluted to one hundredth of the original blood volume. In each case, 990 μl of the suspension are admixed with 10 μl of a suitable concentration of the substance to be investigated, and the mixture is incubated at 30° C. for 5 min. 5 μl of a 4 mM adenosine solution are then added, and the mixture is incubated at 30° C. for another 15 min. The samples are then centrifuged at 3000 g for 5 min and in each case 700 μl of the supernatant are admixed with 28 μl of 70% strength HClO4, allowed to stand in an ice bath for 30 min and centrifuged at 16,000 g for 3 min, and 350 μl of the sample are neutralized using 30 μl of 5N NaOH. 50 μl of the sample are applied to a column (Waters Symmetry C18 5 μm 3.9×150 mm). A Spherisorb ODS II 5 μm 4.6×10 mm column is used as precolumn. The mobile phase used is a gradient of […] KH2PO4/5 mM tributylamine pH7 (mobile phase A) and a mixture of mobile phase A/methanol 1/1 (mobile phase B). The gradient is from 10 to 40% B, at a flow rate of 0.5 ml/min. The adenosine which is present is quantified by its absorption at 260 nm, as are the hypoxanthine and inosine formed. The IC50 is the concentration of active compound at which, 15 min after addition of adenosine, 50% of the adenosine concentration originally employed is still present.

Compound | pIC50
CN(C)C(=O)N(Cc1ccc([C@@H]2CCCC[C@H]2C(=O)N[C@H](C(N)=O)c2ccccc2)cc1)c1ccccc1 [Example 1-3] | 7.70
CN(C)C(=O)N(Cc1ccc([C@@H]2CCCC[C@H]2C(=O)N[C@H](C(N)=O)c2ccccc2)cc1)C1CC1 [Example 1-14] | 7.52
NC(=O)[C@@H](NC(=O)[C@@H]1CCCC[C@H]1c1ccc(CN(C(=O)N2CCOCC2)c2ccccc2)cc1)c1ccccc1 [Example 1-1, N-{4-[(1R,2R)-2-({[(1S)-2-Amino-2-oxo-1-phenylethyl]amino}carbonyl)cyclohexyl]benzyl}-N-phenyl-4-morpholinecarboxamide] | 7.52
CCN(CC)C(=O)N(Cc1ccc([C@@H]2CCCC[C@H]2C(=O)N[C@H](C(N)=O)c2ccccc2)cc1)c1ccccn1 [Example 1-33] | 7.40

The next lines start with the values.

pIC50 | Compound
7.70 | CCN(CCO)C(=O)N(Cc1ccc([C@@H]2CCCC[C@H]2C(=O)N[C@H](C(N)=O)c2ccccc2)cc1)c1ccccc1 [Example 2-18, (1R,2R)-N-[(1S)-2-Amino-1-phenyl-2-oxoethyl]-2-(4-{[{[ethyl(2-hydroxyethyl)-amino]carbonyl}(phenyl)amino]methyl}phenyl)cyclohexanecarboxamide]
7.70 | CCN(CCO)C(=O)N(Cc1ccc([C@@H]2CCCC[C@H]2C(=O)N[C@H](C(N)=O)c2ccc(F)cc2)cc1)c1ccc(F)cc1 [Example 2-1, (1R,2R)-N-[(1S)-2-Amino-1-(4-fluorophenyl)-2-oxoethyl]-2-(4-{[{[ethyl(2-hydroxyethyl)amino]carbonyl}(4-fluorophenyl)amino]methyl}phenyl)cyclohexanecarboxamide]
